From ChEMBL document CHEMBL4308841, “Synthesis, in vitro antiproliferative activity, and kinase inhibitory effects of pyrazole-containing diarylureas and diarylamides” (Eur J Med Chem, 2018)

Columns and labels:
[1] = tested on: MCF7; assay: Growth inhibition of human MCF7 cells incubated for 48 hrs by sulforhodamine B assay; assay type: functional, cell-based; conditions: MCF7, 48 h
[2] = tested on: OVCAR-4; assay: Growth inhibition of human OVCAR4 cells assessed as cell growth at 0.01 uM incubated for 48 hrs by sulforhodamine B assay relative to control; assay type: functional; conditions: OVCAR-4, 48 h, read-out: Activity
[3] = tested on: M14; assay: Growth inhibition of human M14 cells assessed as cell growth at 0.01 uM incubated for 48 hrs by sulforhodamine B assay relative to control; assay type: functional; conditions: M14, 48 h, read-out: Activity
[4] = tested on: NCI-H23; assay: Growth inhibition of human NCI-H23 cells assessed as cell growth at 100 uM incubated for 48 hrs by sulforhodamine B assay relative to control; assay type: functional; conditions: NCI-H23, 48 h, read-out: Activity
[5] = tested on: 786-0; assay: Growth inhibition of human 786-0 cells assessed as cell growth at 0.1 uM incubated for 48 hrs by sulforhodamine B assay relative to control; assay type: functional; conditions: 786-0, 48 h, read-out: Activity
[6] = tested on: HOP-62; assay: Growth inhibition of human HOP62 cells incubated for 48 hrs by sulforhodamine B assay; assay type: functional, cell-based; conditions: HOP-62, 48 h
[7] = tested on: NCI-H460; assay: Growth inhibition of human NCI-H460 cells assessed as cell growth at 1 uM incubated for 48 hrs by sulforhodamine B assay relative to control; assay type: functional; conditions: NCI-H460, 48 h, read-out: Activity
[8] = tested on: CCRF-CEM; assay: Growth inhibition of human CCRF-CEM cells incubated for 48 hrs by sulforhodamine B assay; assay type: functional, cell-based
[9] = tested on: A549; assay: Growth inhibition of human A549/ATCC cells assessed as cell growth at 0.01 uM incubated for 48 hrs by sulforhodamine B assay relative to control; assay type: functional; conditions: A549, 48 h, read-out: Activity
[10] = tested on: MDA-MB-468; assay: Growth inhibition of human MDA-MB-468 cells incubated for 48 hrs by sulforhodamine B assay; assay type: functional, cell-based; conditions: MDA-MB-468, 48 h
[11] = tested on: SNB-75; assay: Growth inhibition of human SNB75 cells assessed as cell growth at 0.1 uM incubated for 48 hrs by sulforhodamine B assay relative to control; assay type: functional; conditions: SNB-75, 48 h, read-out: Activity
[12] = tested on: UACC-62; assay: Growth inhibition of human UACC62 cells assessed as cell growth at 0.1 uM incubated for 48 hrs by sulforhodamine B assay relative to control; assay type: functional; conditions: UACC-62, 48 h, read-out: Activity
[13] = tested on: NCI-H226; assay: Growth inhibition of human NCI-H226 cells assessed as cell growth at 0.01 uM incubated for 48 hrs by sulforhodamine B assay relative to control; assay type: functional; conditions: NCI-H226, 48 h, read-out: Activity
[14] = tested on: BT-549; assay: Growth inhibition of human BT549 cells assessed as cell growth at 1 uM incubated for 48 hrs by sulforhodamine B assay relative to control; assay type: functional; conditions: BT-549, 48 h, read-out: Activity
[15] = tested on: HCC 2998; assay: Growth inhibition of human HCC2998 cells assessed as cell growth at 1 uM incubated for 48 hrs by sulforhodamine B assay relative to control; assay type: functional; conditions: HCC 2998, 48 h, read-out: Activity
[16] = tested on: SK-MEL-5; assay: Growth inhibition of human SK-MEL-5 cells incubated for 48 hrs by sulforhodamine B assay; assay type: functional, cell-based; conditions: SK-MEL-5, 48 h
[17] = tested on: PC-3; assay: Growth inhibition of human PC3 cells assessed as cell growth at 0.01 uM incubated for 48 hrs by sulforhodamine B assay relative to control; assay type: functional; conditions: PC-3, 48 h, read-out: Activity
[18] = tested on: Hs-578T; assay: Growth inhibition of human Hs578T cells assessed as cell growth at 0.01 uM incubated for 48 hrs by sulforhodamine B assay relative to control; assay type: functional; conditions: read-out: Activity
[19] = tested on: A549; assay: Growth inhibition of human A549/ATCC cells assessed as cell growth at 1 uM incubated for 48 hrs by sulforhodamine B assay relative to control; assay type: functional; conditions: A549, 48 h, read-out: Activity
[20] = tested on: PC-3; assay: Growth inhibition of human PC3 cells assessed as cell growth at 0.1 uM incubated for 48 hrs by sulforhodamine B assay relative to control; assay type: functional; conditions: PC-3, 48 h, read-out: Activity
[21] = tested on: DU-145; assay: Growth inhibition of human DU145 cells assessed as cell growth at 0.01 uM incubated for 48 hrs by sulforhodamine B assay relative to control; assay type: functional; conditions: DU-145, 48 h, read-out: Activity
[22] = tested on: CAKI-1; assay: Growth inhibition of human Caki1 cells assessed as cell growth at 0.01 uM incubated for 48 hrs by sulforhodamine B assay relative to control; assay type: functional; conditions: CAKI-1, 48 h, read-out: Activity
[23] = tested on: HL-60(TB); assay: Growth inhibition of human HL-60(TB) cells assessed as cell growth at 1 uM incubated for 48 hrs by sulforhodamine B assay relative to control; assay type: functional; conditions: HL-60, 48 h, read-out: Activity
[24] = tested on: NCI-H460; assay: Growth inhibition of human NCI-H460 cells incubated for 48 hrs by sulforhodamine B assay; assay type: functional, cell-based; conditions: NCI-H460, 48 h
[25] = tested on: MCF7; assay: Growth inhibition of human MCF7 cells assessed as cell growth at 1 uM incubated for 48 hrs by sulforhodamine B assay relative to control; assay type: functional; conditions: MCF7, 48 h, read-out: Activity
[26] = tested on: ACHN; assay: Growth inhibition of human ACHN cells assessed as cell growth at 0.01 uM incubated for 48 hrs by sulforhodamine B assay relative to control; assay type: functional; conditions: read-out: Activity
[27] = tested on: UO-31; assay: Growth inhibition of human UO31 cells assessed as cell growth at 0.01 uM incubated for 48 hrs by sulforhodamine B assay relative to control; assay type: functional; conditions: UO-31, 48 h, read-out: Activity
[28] = tested on: HCT-15; assay: Growth inhibition of human HCT15 cells incubated for 48 hrs by sulforhodamine B assay; assay type: functional, cell-based; conditions: HCT-15, 48 h
[29] = tested on: ACHN; assay: Growth inhibition of human ACHN cells assessed as cell growth at 1 uM incubated for 48 hrs by sulforhodamine B assay relative to control; assay type: functional; conditions: read-out: Activity
[30] = read-out: LC50 (the source's name)
[31] = read-out: pLC50 (the source's name) (converted)

COc1cc(Cl)cc(-c2nn(-c3cccc(NC(=O)c4ccc(N5CCOCC5)c(C(F)(F)F)c4)c3)cc2-c2ccncc2)c1
GI50 ([1]; read-out: GI50): 5.71 µM | LC50 ([1]; read-out: LC50): > 100 µM | TGI ([1]; read-out: TGI): > 100 µM | GI50 ([1]; read-out: pGI50 (converted)): 8.71 µM | LC50 ([1]; read-out: pLC50 (converted)): > 100 µM | TGI ([1]; read-out: pTGI (converted)): > 100 µM | growth at 0.01 µM [2]: 99% | growth at 0.01 µM [3]: 97% | growth at 100 µM [4]: 38% | growth at 0.1 µM [5]: 95% | GI50 ([6]; read-out: GI50): 6.78 µM | CC50 [6, 30]: > 100 µM | TGI ([6]; read-out: TGI): > 100 µM | GI50 ([6]; read-out: pGI50 (converted)): 63.1 µM | CC50 [6, 31]: > 100 µM | TGI ([6]; read-out: pTGI (converted)): > 100 µM | growth at 1 µM [7]: 96% | GI50 ([8]; read-out: GI50): 3.58 µM | CC50 [8, 30]: > 100 µM | TGI ([8]; read-out: TGI): > 100 µM | GI50 ([8]; read-out: pGI50 (converted)): 3.89 µM | CC50 [8, 31]: > 100 µM | TGI ([8]; read-out: pTGI (converted)): > 100 µM | growth at 0.01 µM [9]: 103% | IC50 [10]: 12.1 µM | GI50 ([10]; read-out: GI50): 1.21 µM | CC50 [10, 30]: > 100 µM | TGI ([10]; read-out: TGI): > 100 µM | GI50 ([10]; read-out: pGI50 (converted)): 12 µM | CC50 [10, 31]: > 100 µM | TGI ([10]; read-out: pTGI (converted)): > 100 µM | growth at 0.1 µM [11]: 54% | growth at 0.1 µM [12]: 91% | growth at 0.01 µM [13]: 94% | growth at 1 µM [14]: 59% | growth at 1 µM [15]: 100% | GI50 ([16]; read-out: GI50): 1.55 µM | CC50 [16, 30]: > 100 µM | TGI ([16]; read-out: TGI): > 100 µM | GI50 ([16]; read-out: pGI50 (converted)): 16.6 µM | CC50 [16, 31]: > 100 µM | TGI ([16]; read-out: pTGI (converted)): > 100 µM | growth at 0.01 µM [17]: 97% | growth at 0.01 µM [18]: 92% | growth at 1 µM [19]: 52% | growth at 0.1 µM [20]: 95% | growth at 0.01 µM [21]: 108% | growth at 0.01 µM [22]: 98% | growth at 1 µM [23]: 105% | GI50 ([24]; read-out: GI50): 4.79 µM | CC50 [24, 30]: > 100 µM | TGI ([24]; read-out: TGI): > 100 µM | GI50 ([24]; read-out: pGI50 (converted)): 4.79 µM | CC50 [24, 31]: > 100 µM | TGI ([24]; read-out: pTGI (converted)): > 100 µM | growth at 1 µM [25]: 90% | growth at 0.01 µM [26]: 100% | growth at 0.01 µM [27]: 92% | GI50 ([28]; read-out: GI50): 3.25 µM | CC50 [28, 30]: > 100 µM | TGI ([28]; read-out: TGI): > 100 µM | GI50 ([28]; read-out: pGI50 (converted)): 3.24 µM | CC50 [28, 31]: > 100 µM | TGI ([28]; read-out: pTGI (converted)): > 100 µM | growth at 1 µM [29]: 58%
